Experimental findings from patent US20260209234A1, “SUBSTITUTED DIHYDROPYRROLO[3,4-D]PYRIMIDINE COMPOUNDS AND THEIR USE IN TREATING MEDICAL CONDITIONS” (Karuna Therapeutics, Inc., priority 2022, published 2026) are described below.

Experiment [1] has as its target T1, rM4 receptors (Rattus norvegicus, UniProt P08485).
T1 construct: expressed in transfected cells; host or cells: CHO cells
T1 sequence (P08485 1-478): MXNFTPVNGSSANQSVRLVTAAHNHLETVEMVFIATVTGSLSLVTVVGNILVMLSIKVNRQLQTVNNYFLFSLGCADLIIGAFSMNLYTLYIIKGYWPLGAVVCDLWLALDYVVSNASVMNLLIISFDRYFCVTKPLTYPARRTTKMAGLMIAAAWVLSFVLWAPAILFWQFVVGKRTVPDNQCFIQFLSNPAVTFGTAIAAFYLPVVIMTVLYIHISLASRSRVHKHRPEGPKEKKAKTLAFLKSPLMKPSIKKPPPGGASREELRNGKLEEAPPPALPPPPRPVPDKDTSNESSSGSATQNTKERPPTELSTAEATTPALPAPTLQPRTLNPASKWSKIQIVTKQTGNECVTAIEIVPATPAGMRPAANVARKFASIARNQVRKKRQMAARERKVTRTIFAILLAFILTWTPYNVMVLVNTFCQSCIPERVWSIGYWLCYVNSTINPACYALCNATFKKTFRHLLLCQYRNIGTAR
Briefly: Rat M4 PAM pERK assay. It counts as cell-based. Particulars: CHO cells expressing rM4; EC20 of acetylcholine (10 nM final); TR-FRET. How it is done: (§1) Chinese hamster ovary (CHO) cells expressing either hM4 or rM4 receptors were frozen in assay ready vials (5×10^6 cells/vial) after bulking-up in culture. The day before an assay, vial(s) were thawed and cells seeded in 384 well white proxiplates at 1000/well for hM4 cells and at 2000/well for rM4 cells, in 10 μL of growth media (Hams/F12 with glutamax and 10% FCS) and incubated overnight at 37° C./5% CO2.
(§2) On the following morning, the growth media was removed by ‘flicking out’ over a bin, patting the inverted plate onto tissue, and then replacing with 10 μL of wash media (Hams/F12 with glutamax and 8 mM HEPES, NB: serum free). Then, the wash media was removed in the same way and replaced with 8 μL/well of the serum free media. Plates were then re-incubated for a further 4 hours at 37° C./5% CO2.
(§3) Compounds for testing were solubilized to 10 mM in DMSO and compound addition plates, consisting of ten-point concentration response curves (CRC) in duplicate points (10 μM top concentration, 1/2 log dilution series), were prepared by acoustic dispensing and the compound management group.
(§4) After the 4-hour incubation in serum free media, a 4 μL aliquot of the 3× compound solution containing an EC20 of acetylcholine (10 nM final concentration) was added to the cell plate using a 384 well plate to plate transfer. Then, the plate lid was replaced, and the cells incubated for 5 mins at 37° C./5% CO2. Following this final incubation, all cellular processes were stopped by the addition of 4 μL/well of lysis and blocking buffer and plates were incubated for 30 minutes at RT on an orbital shaker (gentle setting). Then, a final addition of 4 μL/well of antibody detection mix, containing both the Europium-Cryptate (donor) and d2 (acceptor) tagged detection components, was added followed by a further 2-hour incubation at RT, and then the plate was read using a TR-FRET (time resolved fluorescence resonance energy transfer) based protocol.
(Time-resolved FRET reads energy transfer from a long-lived donor to a nearby acceptor.)

Experiment [2] concerns the target T2, hM4 receptors (Homo sapiens, UniProt P08173).
T2 construct: expressed in transfected cells; host or cells: CHO cells
T2 sequence (P08173 1-479): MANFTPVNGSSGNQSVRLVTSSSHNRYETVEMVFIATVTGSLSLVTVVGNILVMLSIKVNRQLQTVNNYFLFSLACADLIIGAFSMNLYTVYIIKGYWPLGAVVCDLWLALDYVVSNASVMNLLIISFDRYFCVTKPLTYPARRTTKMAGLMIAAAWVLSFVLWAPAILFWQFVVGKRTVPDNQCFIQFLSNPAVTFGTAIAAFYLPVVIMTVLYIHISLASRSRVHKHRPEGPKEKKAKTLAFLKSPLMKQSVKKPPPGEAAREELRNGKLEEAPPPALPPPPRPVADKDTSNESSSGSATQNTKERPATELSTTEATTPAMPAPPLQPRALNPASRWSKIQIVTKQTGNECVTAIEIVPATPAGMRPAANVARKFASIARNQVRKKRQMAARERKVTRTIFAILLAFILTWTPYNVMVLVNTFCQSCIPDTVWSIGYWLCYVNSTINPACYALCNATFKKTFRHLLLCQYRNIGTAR
As to the kind of experiment: Human M4 PAM pERK assay. Particulars: CHO cells expressing hM4; EC20 of acetylcholine (10 nM final); TR-FRET. It counts as cell-based. The protocol: as §1, §2, §3, §4

Broadly, the EC50 is the concentration needed to bring the measured effect to its halfway point. Read a low EC50 as a more potent agent. As to `COc1nc(C)nc2c1CN(C(=O)CC1CN(c3ccnc(C(F)(F)F)c3)C1)C2C` (racemic) [Compound I-61, 1-(4-Methoxy-2,7-dimethyl-5,7-dihydro-6H-pyrrolo[3,4-d]pyrimidin-6-yl)-2-(1-(2-(trifluoromethyl)pyridin-4-yl)azetidin-3-yl)ethan-1-one], the EC50 in experiment [1] and in experiment [2] was 0.5 to 2 µM each time.
As for `COc1nc(C#N)nc2c1C(C)N(C(=O)CC1CN(c3ncns3)C1)C2` (single isomer, unassigned) [Compound I-3, 6-(2-(1-(1,2,4-Thiadiazol-5-yl)azetidin-3-yl)acetyl)-4-methoxy-5-methyl-6,7-dihydro-5H-pyrrolo[3,4-d]pyrimidine-2-carbonitrile], the EC50 in experiment [1] lay within 0.5 to 2 µM; in experiment [2], 0.1 to 0.5 µM.
With `COc1nc(C#N)nc2c1C(C)N(C(=O)CC1CN(c3cc(F)cc(F)c3)C1)C2` (single isomer, unassigned) [Compound I-9, 6-(2-(1-(3,5-Difluorophenyl)azetidin-3-yl)acetyl)-4-methoxy-5-methyl-6,7-dihydro-5H-pyrrolo[3,4-d]pyrimidine-2-carbonitrile], the EC50 in experiment [1] and in experiment [2] was at most 0.1 µM throughout.
As for `COc1nc(C#N)nc2c1C(C)N(C(=O)CC1CN(c3cc(F)cc(F)c3)C1)C2` (single isomer, unassigned) [Compound I-10, 6-(2-(1-(3,5-Difluorophenyl)azetidin-3-yl)acetyl)-4-methoxy-5-methyl-6,7-dihydro-5H-pyrrolo[3,4-d]pyrimidine-2-carbonitrile], the EC50 in experiment [1] and in experiment [2] was at least 2 µM throughout.
With `COc1nc(C#N)nc2c1C(C)N(C(=O)CC1CN(c3cccc(C(F)(F)F)c3)C1)C2` (single isomer, unassigned) [Compound I-16, 4-Methoxy-5-methyl-6-(2-(1-(3-(trifluoromethyl)phenyl)azetidin-3-yl)acetyl)-6,7-dihydro-5H-pyrrolo[3,4-d]pyrimidine-2-carbonitrile], the EC50 in experiment [1] and in experiment [2] was 0.1 to 0.5 µM each time.
In the case of `COc1cc(N2CC(CC(=O)N3Cc4nc(C#N)nc(OC)c4C3C)C2)ccn1` (single isomer, unassigned) [Compound I-17, 4-Methoxy-6-(2-(1-(2-methoxypyridin-4-yl)azetidin-3-yl)acetyl)-5-methyl-6,7-dihydro-5H-pyrrolo[3,4-d]pyrimidine-2-carbonitrile], the EC50 in experiment [1] and in experiment [2] was at least 2 µM each time.
Consider `COc1cc(N2CC(CC(=O)N3Cc4nc(C#N)nc(OC)c4C3C)C2)ccn1` (single isomer, unassigned) [Compound I-18, 4-Methoxy-6-(2-(1-(2-methoxypyridin-4-yl)azetidin-3-yl)acetyl)-5-methyl-6,7-dihydro-5H-pyrrolo[3,4-d]pyrimidine-2-carbonitrile], for which the concentration giving a half-maximal response (EC50) in experiment [1] is 0.5 to 2 µM; in experiment [2], at most 0.1 µM.
In the same order, the values of `COc1nc(C#N)nc2c1C(C)N(C(=O)CC1CN(c3cncnc3)C1)C2` (single isomer, unassigned) [Compound I-26, 4-Methoxy-5-methyl-6-(2-(1-(pyrimidin-5-yl)azetidin-3-yl)acetyl)-6,7-dihydro-5H-pyrrolo[3,4-d]pyrimidine-2-carbonitrile] are at least 2 µM and 0.5 to 2 µM.
In the same order, the values of `COc1nc(C)nc2c1C(C)N(C(=O)CC1CN(c3cncnc3)C1)C2` (single isomer, unassigned) [Compound I-59, 1-(4-Methoxy-2,5-dimethyl-5,7-dihydro-6H-pyrrolo[3,4-d]pyrimidin-6-yl)-2-(1-(pyrimidin-5-yl)azetidin-3-yl)ethan-1-one] are 0.5 to 2 µM and at most 0.1 µM.
In the same order, the values of `COc1nc(C#N)nc2c1C(C)N(C(=O)CC1C(C)N(c3ccnc(C(F)(F)F)c3)C1C)C2` (centres unmarked) [Compound I-40, 6-(2-(2,4-Dimethyl-1-(2-(trifluoromethyl)pyridin-4-yl)azetidin-3-yl)acetyl)-4-methoxy-5-methyl-6,7-dihydro-5H-pyrrolo[3,4-d]pyrimidine-2-carbonitrile] are 0.1 to 0.5 µM and 0.5 to 2 µM.
In the case of `COc1nc(C)nc2c1CN(C(=O)CC1CN(c3cccnc3)C1)C2` [Compound I-41, 1-(4-Methoxy-2-methyl-5,7-dihydro-6H-pyrrolo[3,4-d]pyrimidin-6-yl)-2-(1-(pyridin-3-yl)azetidin-3-yl)ethan-1-one], the results for the EC50 in experiment [1] and in experiment [2] were 0.5 to 2 µM and 0.1 to 0.5 µM, respectively.
In the same order, the values of `CNc1nc(C)nc2c1CN(C(=O)CC1CN(c3cccnc3)C1)C2` [Compound I-72, 1-(2-Methyl-4-(methylamino)-5,7-dihydro-6H-pyrrolo[3,4-d]pyrimidin-6-yl)-2-(1-(pyridin-3-yl)azetidin-3-yl)ethan-1-one] are at least 2 µM and 0.5 to 2 µM.
For `Cc1nc2c(c(NC3CC3)n1)CN(C(=O)CC1CN(c3cccnc3)C1)C2` [Compound I-73, 1-(4-(Cyclopropylamino)-2-methyl-5,7-dihydro-6H-pyrrolo[3,4-d]pyrimidin-6-yl)-2-(1-(pyridin-3-yl)azetidin-3-yl)ethan-1-one] the same measures were at least 2 µM and 0.5 to 2 µM.
In the same order, the values of `COc1nc(C2COC2)nc2c1CN(C(=O)CC1CN(c3ccnc(C(F)(F)F)c3)C1)C2` [Compound I-77, 1-(4-Methoxy-2-(oxetan-3-yl)-5,7-dihydro-6H-pyrrolo[3,4-d]pyrimidin-6-yl)-2-(1-(2-(trifluoromethyl)pyridin-4-yl)azetidin-3-yl)ethan-1-one] are at least 2 µM and at least 2 µM.
For `COc1nc(C(F)(F)F)nc2c1CN(C(=O)CC1CN(c3cccnc3)C1)C2` [Compound I-78, 1-(4-Methoxy-2-(trifluoromethyl)-5,7-dihydro-6H-pyrrolo[3,4-d]pyrimidin-6-yl)-2-(1-(pyridin-3-yl)azetidin-3-yl)ethan-1-one], the 50% effective concentration (EC50) in experiment [1] was in the range of 0.5 to 2 µM; in experiment [2], 0.1 to 0.5 µM.
Turning to `COc1nc(OC(F)F)nc2c1CN(C(=O)CC1CN(c3cccnc3)C1)C2` [Compound I-80, 1-(2-(Difluoromethoxy)-4-methoxy-5,7-dihydro-6H-pyrrolo[3,4-d]pyrimidin-6-yl)-2-(1-(pyridin-3-yl)azetidin-3-yl)ethan-1-one], the EC50 in experiment [1] is at least 2 µM; in experiment [2], 0.5 to 2 µM.
